Assay results: patent US10478421B1, “Sortilin binding compounds, formulations, and uses thereof” (University of Florida, priority 2016, dated 2019)

Assays:
McA cells = assay: LDH release into medium (viability of McA cells); type: cell-based, rat; details: incubation with compound (10 μM cpd984, 18 h)
hsortilin [1] = target: T1, hsortilin (Homo sapiens, UniProt Q99523); assay: Surface plasmon resonance on hsortilin immobilized on CM7 chips (Example 2); type: binding
T1 construct: Human sortilin (hsortilin) (Ser78-Asn755) with C-terminal 6-His tag; purchased R&D Systems, Inc. (Minneapolis, Minn.)
T1 sequence (Q99523 78-755): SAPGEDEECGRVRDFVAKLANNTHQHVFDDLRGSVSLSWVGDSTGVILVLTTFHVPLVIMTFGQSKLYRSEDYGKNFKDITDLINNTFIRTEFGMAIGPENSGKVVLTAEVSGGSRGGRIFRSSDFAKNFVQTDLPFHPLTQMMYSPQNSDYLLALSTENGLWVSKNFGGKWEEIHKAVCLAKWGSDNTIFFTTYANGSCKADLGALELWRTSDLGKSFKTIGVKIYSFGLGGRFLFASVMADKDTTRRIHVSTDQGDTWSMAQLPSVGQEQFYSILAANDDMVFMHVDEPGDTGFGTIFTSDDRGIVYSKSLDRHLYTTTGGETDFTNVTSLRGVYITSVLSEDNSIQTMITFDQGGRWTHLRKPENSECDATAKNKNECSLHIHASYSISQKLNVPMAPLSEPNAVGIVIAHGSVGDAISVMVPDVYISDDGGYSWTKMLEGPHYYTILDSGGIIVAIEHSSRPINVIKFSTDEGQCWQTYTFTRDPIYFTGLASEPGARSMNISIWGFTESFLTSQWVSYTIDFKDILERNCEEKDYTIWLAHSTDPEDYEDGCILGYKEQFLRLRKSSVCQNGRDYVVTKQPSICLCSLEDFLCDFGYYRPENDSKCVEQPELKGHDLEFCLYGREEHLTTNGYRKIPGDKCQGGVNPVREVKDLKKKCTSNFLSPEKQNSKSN
Experimental: Surface plasmon resonance (SPR) measurements were performed on a Biacore T200 instrument equipped with two separate CM7 sensor chips, one with about 20,000 response units (RU) and another with about 27,000 RU of hsortilin covalently immobilized. […] For all other SPR injections, regeneration consisted of injections of running buffer alone. GE BIAcore T200 evaluation software version 3.0 (BIAevaluate) was used to analyze and export results. […] PIP3 containing nanodiscs were flowed at 2:1 dilutions to obtain kinetic data fitted using about 27,000 RU CM7 surface. Kinetic fit generated with BIAevaluate and local Rmax using Langmuir 1:1 binding model exported from BIAevaluate to Microsoft Excel 2016 with fit indicated by the black line.

hsortilin [2] = target: T2, hsortilin (Homo sapiens, UniProt Q99523); assay: SPR binding of 541 and 984 to hsortilin (Example 4)
T2 sequence (Q99523 78-831): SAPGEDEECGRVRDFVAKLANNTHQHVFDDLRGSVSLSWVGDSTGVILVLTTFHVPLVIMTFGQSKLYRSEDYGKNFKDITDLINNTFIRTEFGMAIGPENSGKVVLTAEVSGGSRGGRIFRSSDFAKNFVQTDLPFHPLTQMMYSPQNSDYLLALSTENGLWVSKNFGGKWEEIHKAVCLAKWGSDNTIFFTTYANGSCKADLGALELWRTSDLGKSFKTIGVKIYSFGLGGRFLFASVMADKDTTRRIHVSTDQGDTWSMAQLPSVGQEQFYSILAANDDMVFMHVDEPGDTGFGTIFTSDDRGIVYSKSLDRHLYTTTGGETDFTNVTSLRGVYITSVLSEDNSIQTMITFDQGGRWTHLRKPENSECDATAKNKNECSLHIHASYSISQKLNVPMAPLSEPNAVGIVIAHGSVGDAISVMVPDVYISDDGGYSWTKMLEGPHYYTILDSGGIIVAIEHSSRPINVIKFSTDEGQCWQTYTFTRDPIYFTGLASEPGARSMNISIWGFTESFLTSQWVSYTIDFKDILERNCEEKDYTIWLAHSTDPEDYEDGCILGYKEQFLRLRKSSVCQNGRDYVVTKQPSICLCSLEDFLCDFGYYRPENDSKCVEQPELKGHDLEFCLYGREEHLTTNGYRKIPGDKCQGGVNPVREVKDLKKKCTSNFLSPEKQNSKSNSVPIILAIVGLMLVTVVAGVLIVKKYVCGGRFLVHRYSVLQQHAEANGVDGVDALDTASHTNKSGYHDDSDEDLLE
Experimental: Due to inherent fluorescence of 541 small molecule, thermophoresis was performed in two different buffer conditions (PBS n=3 and MST n=2) and at two sets of concentration ranges. […] SPR indicates a high and low affinity binding site of cpd984 to human sortilin of hsortilin with Kd of about 200 μM and about 20 nM.

| SMILES | LDH release / toxicity (McA cells) | effect on NT binding to hsortilin by SPR (hsortilin [1]) | Kd (hsortilin [2]; two trials) [µM] | LDH release / toxicity (McA cells; listed as 984) | increase of binding of C-term NT (SITE 1) to hsortilin when incubated with 984 (hsortilin [1]) [fold] | Kd (hsortilin [2]; high affinity binding site) [µM] | Kd (hsortilin [2]; low affinity binding site) [µM] |
| --- | --- | --- | --- | --- | --- | --- | --- |
| CC(NC(=O)c1ccccc1NCC(=O)O)c1ccccc1 (stereo not drawn) [cpd541] | non-toxic | competes for NT binding | 7.5 | – | – | – | – |
| CN1CCC[C@H]1C(=O)Nc1cccc(NC(=O)CCc2ccccc2)c1 [cpd984, (2S)-1-methyl-N-{3-[(3-phenylpropanoyl)-amino]phenyl} pyrrolidine-2-carboxamide] | no significant release of LDH | enhances NT binding | – | non-toxic | 100 | ~0.02 | ~200 |
